# Test results: ChEMBL document CHEMBL1142464, “Synergistic effect of basic residues at positions 14-15 of nociceptin on binding affinity and receptor activation” (Bioorg Med Chem, 2008)
# Columns and labels:
# [1] = target: T1, Nociceptin receptor (Rattus norvegicus, UniProt P35370); test: Activation of rat ORL1 receptor expressed in african green monkey COS7 cells by [35S]GTPgammaS binding assay; type: functional, cell-based, COS-7
# [2] = target: T1, Nociceptin receptor; test: Displacement of [3H]nociceptin from rat ORL1 receptor expressed in african green monkey COS7 cells; type: cell-based, COS-7
# [3] = Stability in presence of trypsin assessed as half life of compound hydrolysis; type: ADME
# [4] = Stability in presence of rat brain trypsin assessed as half life of compound hydrolysis by HPLC; type: physicochemical
# [5] = Stability in presence of rat brain trypsin assessed as half life of compound hydrolysis in presence of trypsin inhibitor bacitracin by HPLC; type: ADME, tissue-based; details: isolated protein
# [6] = Stability in presence of rat brain trypsin assessed compound degradation after 60 mins by HPLC; type: ADME; details: read-out: Activity
# [7] = target: Nociceptin receptor (Rattus norvegicus) (UniProt P35370); test: Activation of rat ORL1 receptor expressed in african green monkey COS7 cells assessed as stimulation of [35S]GTPgammaS binding relative to nociceptin; type: functional, cell-based; details: COS-7
# Nociceptin receptor (Rattus norvegicus), sequence (P35370 whole entry): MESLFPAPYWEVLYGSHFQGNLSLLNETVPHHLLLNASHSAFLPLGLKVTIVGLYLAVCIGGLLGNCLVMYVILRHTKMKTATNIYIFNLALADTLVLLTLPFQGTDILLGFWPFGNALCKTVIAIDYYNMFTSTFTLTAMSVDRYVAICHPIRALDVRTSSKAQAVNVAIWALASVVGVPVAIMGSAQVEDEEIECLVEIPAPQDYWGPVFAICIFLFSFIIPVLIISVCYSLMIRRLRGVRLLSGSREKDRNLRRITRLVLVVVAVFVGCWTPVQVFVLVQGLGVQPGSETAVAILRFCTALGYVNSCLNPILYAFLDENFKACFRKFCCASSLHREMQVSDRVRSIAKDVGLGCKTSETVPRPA
# T1 sequence (P35370 whole entry): as above
Molecule,EC50 [1] [nM],IC50 [2] [nM],also measured
CC(C)C[C@H](NC(=O)[C@H](CCCCN)NC(=O)[C@H](CCCNC(=N)N)NC(=O)[C@H](C)NC(=O)[C@H](CO)NC(=O)[C@H](CCCCN)NC(=O)[C@H](CCCNC(=N)N)NC(=O)[C@H](C)NC(=O)CNC(=O)[C@@H](NC(=O)[C@H](Cc1ccccc1)NC(=O)CNC(=O)CNC(=O)[C@@H](N)Cc1ccccc1)[C@@H](C)O)C(=O)N[C@@H](CCCCN)C(=O)N[C@@H](CC(N)=O)C(=O)N[C@@H](CCC(N)=O)C(=O)O,5.8,0.41,half-life [3]: 20 min
C[C@H](NC(=O)CNC(=O)[C@@H](NC(=O)[C@H](Cc1ccccc1)NC(=O)CNC(=O)CNC(=O)[C@@H](N)Cc1ccccc1)[C@@H](C)O)C(=O)N[C@@H](CCCN=C(N)N)C(=O)N[C@@H](CCCCN)C(=O)N[C@@H](CO)C(=O)N[C@@H](C)C(=O)N[C@@H](CCCN=C(N)N)C(=O)N[C@@H](CCCCN)C(=O)N[C@@H](Cc1ccc(O)cc1)C(=O)N[C@@H](C)C(=O)N[C@@H](CC(N)=O)C(=O)N[C@@H](CCC(N)=O)C(=O)O,11,1.1,
C[C@H](NC(=O)CNC(=O)[C@@H](NC(=O)[C@H](Cc1ccccc1)NC(=O)CNC(=O)CNC(=O)[C@@H](N)Cc1ccccc1)[C@@H](C)O)C(=O)N[C@@H](CCCN=C(N)N)C(=O)N[C@@H](CCCCN)C(=O)N[C@@H](CO)C(=O)N[C@@H](C)C(=O)N[C@@H](CCCN=C(N)N)C(=O)N[C@@H](CCCCN)C(=O)N[C@@H](CCCN=C(N)N)C(=O)N[C@@H](CCCCN)C(=O)N[C@@H](CC(N)=O)C(=O)N[C@@H](CCC(N)=O)C(=O)O,1.1,0.21,half-life [4]: 600 min; half-life [3]: 30 min; Stability [5]: Stable; metabolised at 1 h [6]: < 10%
C[C@H](NC(=O)CNC(=O)[C@@H](NC(=O)[C@H](Cc1ccccc1)NC(=O)CNC(=O)CNC(=O)[C@@H](N)Cc1ccccc1)[C@@H](C)O)C(=O)N[C@@H](CCCNC(=N)N)C(=O)N[C@@H](CCCCN)C(=O)N[C@@H](CO)C(=O)N[C@@H](C)C(=O)N[C@@H](CCCNC(=N)N)C(=O)N[C@@H](CCCCN)C(=O)N[C@@H](CCCNC(=N)N)C(=O)N[C@@H](CCCCN)C(=O)N[C@@H](CC(N)=O)C(=O)N[C@@H](CCC(N)=O)C(=O)O,,,Activity [7]: 10%
CC(C)C[C@H](NC(=O)[C@H](CCCCN)NC(=O)[C@H](CCCN=C(N)N)NC(=O)[C@H](C)NC(=O)[C@H](CO)NC(=O)[C@H](CCCCN)NC(=O)[C@H](CCCN=C(N)N)NC(=O)[C@H](C)NC(=O)CNC(=O)[C@@H](NC(=O)[C@H](Cc1ccccc1)NC(=O)CNC(=O)CNC(=O)[C@@H](N)Cc1ccccc1)[C@@H](C)O)C(=O)N[C@@H](C)C(=O)N[C@@H](CC(N)=O)C(=O)N[C@@H](CCC(N)=O)C(=O)O [NOCICEPTIN],,,half-life [4]: 480 min; half-life [3]: 13 min; Stability [5]: Stable; metabolised at 1 h [6]: 10%
H-FGGFTGARKRKRKLANQ-OH [listing 1 of 2 here],86,0.94,
H-FGGFTGARKRKRKLANQ-OH [listing 2 of 2 here],,,Activity [7]: > 90%
H-FGGFTGARKSARKAANQ-OH,11,1.5,
H-FGGFTGARKSARKFANQ-OH,9,1.1,
H-FGGFTGARKSARKKANQ-OH,4.1,0.41,
H-FGGFTGARKSARKKKNQ-OH,1.1,0.16,
H-FGGFTGARKSARKKRNQ-OH,1.3,0.21,
H-FGGFTGARKSARKLARK-OH,2.7,0.54,
H-FGGFTGARKSARKLFNQ-OH,12,1,
H-FGGFTGARKSARKLLNQ-OH,10,0.48,
H-FGGFTGARKSARKLRNQ-OH,3.2,0.31,
H-FGGFTGARKSARKLVNQ-OH,30,2.2,
H-FGGFTGARKSARKLWNQ-OH,50,2.1,
H-FGGFTGARKSARKLYNQ-OH,33,1,
H-FGGFTGARKSARKRANQ-OH,4,0.33,half-life [3]: 23 min
H-FGGFTGARKSARKRKRK-OH,2.3,0.42,
H-FGGFTGARKSARKRRNQ-OH,0.98,0.27,
H-FGGFTGARKSARKVANQ-OH,15,1.1,
H-FGGFTGARKSARKWANQ-OH,5.8,0.41,
H-FGGFTRKRKSARKLANQ-OH [listing 1 of 2 here],870,13,
H-FGGFTRKRKSARKLANQ-OH [listing 2 of 2 here],,,Activity [7]: 60%
